Read-outs that look alike come from different tables or passages of the source.
Legend:
[1] = tested on: FolR1 + Igrov1 Cells; experiment: In vitro cytotoxicity (Cell Titer-Glo, 120 hrs) on Igrov1 cells; format: cell-based
Excerpt: (§1) FOLR1-positive KB or Igrov1 cells, FOLR1-negative A549 cells, Her2 positive SKBR3 cells and Her2 negative MDA-MB-468 cells, Muc16-positive OVCAR3 and Mucl6-negative Skov3 were maintained in Ham's F-12: high glucose DMEM (50:50) (Corning) supplemented with 10% heat-inactivated fetal bovine serum (Corning), 1% Penicillin/Streptomycin (Corning) and 2 mmol/L-glutamax (Thermo Fisher Scientific). Adherent cells were washed twice with PBS, harvested with Acutase and counted by the Vi-CELL cell viability analyzer. A total of 625 cells were seeded in each well of a 384-well flat bottom white polystyrene plate. ADC, ISAC, and iADC conjugates were formulated at 2-fold starting concentration in the cell culture medium and filtered through MultiScreenHTS 96-Well Filter Plates (Millipore; Billerica, Mass.). Serial dilutions of test samples (1:3 serial dilution starting from 100 nM) was added into treatment wells. Assay plates were cultured at 37° C. in a CO2 incubator for 120 hrs before assay. For cell viability measurement, 30 μL of Cell Titer-Glo® reagent (Promega Corp. Madison, Wis.) was added into each well, and plates were processed as per product instructions. Relative luminescence was measured on an ENVISION® plate reader (Perkin-Elmer; Waltham, Mass.). Relative luminescence readings were converted to percent viability using untreated cells as controls. […]

[2] = tested on: SKBR3 (Her2+); experiment: In vitro cytotoxicity (Cell Titer-Glo, 120 hrs) on SKBR3 cells; format: cell-based; conditions: Homo sapiens, SK-BR-3, Table 6, Experiment #2, read-out: Cell Killing on SKBR3 (Her2+) EC50
Excerpt: as §1

[3] = tested on: MDA-MB-468 (Her2-); experiment: In vitro cytotoxicity (Cell Titer-Glo, 120 hrs) on MDA-MB-468 cells; format: cell-based; conditions: Homo sapiens, Table 6, Experiment #2, read-out: Cell Killing on MDA-MB-468 (Her2-) EC50
Excerpt: as §1

[4] = tested on: Skov3 (Muc16−); experiment: In vitro cytotoxicity (Cell Titer-Glo, 120 hrs) on Skov3 cells; format: cell-based; conditions: Homo sapiens, SK-OV-3, Table 7, Experiment #2, read-out: Cell Killing on Skov3 (Muc16−) EC50
Excerpt: as §1

[5] = tested on: KB (FolR1+); experiment: In vitro cytotoxicity (Cell Titer-Glo, 120 hrs) on KB cells; format: cell-based; conditions: Homo sapiens, Table 21, Example 28, homogeneous iADCs
Excerpt: as §1

[6] = tested on: A549 (FolR1−); experiment: In vitro cytotoxicity (Cell Titer-Glo, 120 hrs) on A549 cells; format: cell-based; conditions: Homo sapiens, Table 21, Example 28, homogeneous iADCs
Excerpt: as §1

[7] = tested on: monocytes; experiment: Immune cell activation in PBMCs with KB cells: monocytes (CD86 on CD14+ cells); format: cell-based, human; conditions: Example 29; PBMCs from two donors with KB cells, two days
Experimental: (§2) This example evaluates the ability of three homogeneous iADCs to stimulate the activation of different immune cell populations (monocyte, B cell, and DCs). Free TLR7 agonists, free hemiasterlin warhead, anti-FolRα-ADC, and the corresponding ISACs were used as controls in the experiment. PBMCs from two healthy donors were isolated using similar protocol as descripted in previous examples. PBMCs were treated with three homogeneous iADC and controls in the presence of FolR1 positive KB cells for two days. The immune cells were then stained with different cell population markers and activation markers. Monocyte activation was indicated as increase of CD86 expression on CD14+ cells. B cell activation was indicated as increase of CD86 expression on CD14-/Lin+/HLA-DR+ cells. Dendritic cells (DC) activation was indicated as increase of CD86 expression on CD14-/Lin-/HLA-DR+/CD123+ cells.

[8] = tested on: B cells; experiment: Immune cell activation in PBMCs with KB cells: B cells (CD86 on CD14-/Lin+/HLA-DR+ cells); format: cell-based, human; conditions: Example 29; PBMCs from two donors with KB cells, two days
Experimental: as §2

[9] = tested on: Dendritic cells (DC); experiment: Immune cell activation in PBMCs with KB cells: DCs (CD86 on CD14-/Lin-/HLA-DR+/CD123+ cells); format: cell-based, human; conditions: Example 29; PBMCs from two donors with KB cells, two days
Experimental: as §2

[10] = tested on: monocytes in human PBMCs; experiment: Monocyte activation (% CD86+ within CD14+) in isolated monocytes or PBMCs co-cultured with FolR1 positive KB cells; format: cell-based; conditions: 48 hr co-culture with FolR1 positive KB cells
Experimental: PBMCs were isolated from human blood donors by Leukosep tube and Nycoprep 1.077 buffer according to the manufacture's recommendation. CD14+ monocytes were isolated by immunomagnetic negative selection from fresh PBMCs (StemCell #19359—EasySep Human Monocyte Isolation Kit). PBMCs and monocytes were cultured in RPMI supplemented with 10% heat-inactivated fetal bovine serum from Hyclone, 1% Penicillin/Streptomycin and 2 mmol/L-glutamax before the assay. On the day of assay, 300,000 of PBMC or 30,000 of monocytes in 40 ul of culture medium were seeded in 96-well cell culture plates. 40 ul of the test articles (formulated at 3× of starting concentration, 1:10 serial dilution) and 40 ul of 10,000 Oregon green stained target cells were then added into the well. The cell mixtures were co-cultured in the presence of test articles and 10 ug/ml LPS-RS for 48 hr. […] Cells were washed, fixed with 2% PFA overnight, and read on the Attune NxT cytometer (Thermo Fisher). […]
PBMCs were isolated from human blood donors by Leukosep tube and Nycoprep 1.077 buffer according to the manufacture's recommendation. […] Cells were washed, fixed with 2% PFA overnight, and read on the Attune NxT cytometer (Thermo Fisher). […]

SMILES: CCCCc1nc2c(N)nc3ccccc3c2n1Cc1ccc(CN)cc1 [Compound 4]
- EC50 ([1]; Homo sapiens, IGROV-1, 120 h, read-out: Cell Killing on FolR1 + Igrov1 Cells EC50): > 100 nM
- EC50 [2]: > 100 nM
- EC50 [3]: > 100 nM
- EC50 [4]: > 100 nM

SMILES: CCCCc1nc2c(N)nc3ccccc3c2n1OCCCCN [Compound 5]
- EC50 ([1]; Experiment #1, 120 hrs, NK = no cell killing detected): > 100 nM

SMILES: CCCCCNc1nc(N)nc2ccn(Cc3ccc(CN4CC5(CNCCO5)C4)cc3OC)c12 [Compound 7, 5-(4-((5-oxa-2,8-diazaspiro[3.5]nonan-2-yl)methyl)-2-methoxybenzyl)-N4-pentyl-5H-pyrrolo[3,2-d]pyrimidine-2,4-diamine]
- EC50 [5]: > 100 nM
- EC50 [6]: > 100 nM
- activation of monocytes, in words [7]: much more potent
- activation of B cells, in words [8]: much more potent
- activation of DCs, in words [9]: much more potent

SMILES: CCCCc1nc2c(N)nc3ccccc3c2n1Cc1ccc(CNC(=O)OCc2ccc(NC(=O)[C@H](CCCNC(N)=O)NC(=O)[C@@H](NC(=O)CCOCCOCCOCCOCCNC(=O)CCC(=O)N3Cc4ccccc4C#Cc4ccccc43)C(C)C)cc2)cc1 [Compound 401]
- monocyte activation, in words [10]: activated monocyte

— US11744876B2, “Immunomodulator antibody drug conjugates and uses thereof” (Sutro Biopharma, Inc., priority 2019, dated 2023)
